{
  "source": "ChEMBL document CHEMBL3045643",
  "about": "“Synthesis, crystal structure, and anticancer properties of cyclic monocarbonyl analogs of curcumin” (Med Chem Res, 2011)",
  "key": {"[1]": {"assay": "Cytotoxicity against Homo sapiens (human) […] cells at 0.01 to 30 uM by CCK8-based colorimetric analysis", "format": "cell-based", "settings": "wi-38, 30 µM"}, "PANC-1 [2]": {"tested_on": "PANC-1", "assay": "Cytotoxicity against Homo sapiens (human) PANC1 cells at 0.01 to 30 uM by CCK8-based colorimetric analysis", "format": "functional, cell-based"}, "Calu-1 [3]": {"tested_on": "Calu-1", "assay": "Cytotoxicity against Homo sapiens (human) Calu1 cells at 0.01 to 30 uM by CCK8-based colorimetric analysis", "format": "functional, cell-based"}, "ACHN [4]": {"tested_on": "ACHN", "assay": "Cytotoxicity against Homo sapiens (human) ACHN cells at 0.01 to 30 uM by CCK8-based colorimetric analysis", "format": "functional, cell-based"}, "NCI-H460": {"tested_on": "NCI-H460", "assay": "Cytotoxicity against Homo sapiens (human) H460 cells at 0.01 to 30 uM by CCK8-based colorimetric analysis", "format": "functional, cell-based"}, "HCT-116 [5]": {"tested_on": "HCT-116", "assay": "Cytotoxicity against Homo sapiens (human) HCT116 cells at 0.01 to 30 uM by CCK8-based colorimetric analysis", "format": "functional, cell-based"}, "HCT-116 [6]": {"tested_on": "HCT-116", "assay": "Cytotoxicity against Homo sapiens (human) HCT116 cells by CCK8-based colorimetric analysis", "format": "functional, cell-based"}, "ACHN [7]": {"tested_on": "ACHN", "assay": "Cytotoxicity against Homo sapiens (human) ACHN cells by CCK8-based colorimetric analysis", "format": "functional, cell-based"}, "PANC-1 [8]": {"tested_on": "PANC-1", "assay": "Cytotoxicity against Homo sapiens (human) PANC1 cells by CCK8-based colorimetric analysis", "format": "functional, cell-based"}, "[9]": {"assay": "Cytotoxicity against Homo sapiens (human) H460 cells by CCK8-based colorimetric analysis", "format": "functional, cell-based", "settings": "NCI-H460"}, "Calu-1 [10]": {"tested_on": "Calu-1", "assay": "Cytotoxicity against Homo sapiens (human) Calu1 cells by CCK8-based colorimetric analysis", "format": "functional, cell-based"}},
  "note": "The source made the active and inactive calls. No cut-off for these calls is given here.",
  "data": [
    {"smiles": "COc1ccccc1/C=C1\\C(=O)/C(=C\\c2ccccc2OC)c2ccccc21", "values": [
      {"measurement": "Activity", "setting": "[1]", "result": "Non-toxic"},
      {"measurement": "Activity", "setting": "PANC-1 [2]", "result": "Active"},
      {"measurement": "Activity", "setting": "Calu-1 [3]", "result": "Active"},
      {"measurement": "Activity", "setting": "ACHN [4]", "result": "Active"},
      {"measurement": "Activity", "setting": "NCI-H460", "result": "Active"},
      {"measurement": "Activity", "setting": "HCT-116 [5]", "result": "Active"}
    ]},
    {"smiles": "O=C1/C(=C/c2ccccc2)CN(Cc2ccccc2)C/C1=C\\c1ccccc1", "values": [
      {"measurement": "Activity", "setting": "[1]", "result": "Non-toxic"},
      {"measurement": "Activity", "setting": "PANC-1 [2]", "result": "Active"},
      {"measurement": "Activity", "setting": "Calu-1 [3]", "result": "Active"},
      {"measurement": "Activity", "setting": "ACHN [4]", "result": "Active"},
      {"measurement": "Activity", "setting": "NCI-H460", "result": "Active"},
      {"measurement": "Activity", "setting": "HCT-116 [5]", "result": "Active"}
    ]},
    {"smiles": "COc1ccc(/C=C2\\CN(Cc3ccccc3)C/C(=C\\c3ccc(OC)cc3)C2=O)cc1", "values": [
      {"measurement": "Activity", "setting": "[1]", "result": "Non-toxic"},
      {"measurement": "Activity", "setting": "PANC-1 [2]", "result": "Active"},
      {"measurement": "Activity", "setting": "Calu-1 [3]", "result": "Active"},
      {"measurement": "Activity", "setting": "ACHN [4]", "result": "Active"},
      {"measurement": "Activity", "setting": "NCI-H460", "result": "Active"},
      {"measurement": "Activity", "setting": "HCT-116 [5]", "result": "Active"}
    ]},
    {"smiles": "O=C1/C(=C/c2cccc(O)c2)CN(Cc2ccccc2)C/C1=C\\c1cccc(O)c1", "values": [
      {"measurement": "Activity", "setting": "[1]", "result": "Non-toxic"},
      {"measurement": "Activity", "setting": "PANC-1 [2]", "result": "Active"},
      {"measurement": "Activity", "setting": "Calu-1 [3]", "result": "Active"},
      {"measurement": "Activity", "setting": "ACHN [4]", "result": "Active"},
      {"measurement": "Activity", "setting": "NCI-H460", "result": "Active"},
      {"measurement": "Activity", "setting": "HCT-116 [5]", "result": "Active"}
    ]},
    {"smiles": "CCOc1ccc(/C=C2\\CN(Cc3ccccc3)C/C(=C\\c3ccc(OCC)cc3)C2=O)cc1", "values": [
      {"measurement": "Activity", "setting": "[1]", "result": "Non-toxic"},
      {"measurement": "IC50", "setting": "HCT-116 [6]", "result": 8.3, "unit": "µM"},
      {"measurement": "IC50", "setting": "ACHN [7]", "result": 6.9, "unit": "µM"},
      {"measurement": "IC50", "setting": "PANC-1 [8]", "result": 7.2, "unit": "µM"},
      {"measurement": "IC50", "setting": "[9]", "result": 5.5, "unit": "µM"},
      {"measurement": "IC50", "setting": "Calu-1 [10]", "result": 8.1, "unit": "µM"}
    ]}
  ]
}
